Structures can show the parent of a compound that is named as a salt. Where two headings read alike, the source gives them in different places.
What was measured:
[1] = tested on: PD patients with levodopa-induced dyskinesia (LID); details: cited from earlier work
[2] = tested on: subjects with Parkinson's Disease (PD) who have levodopa-induced dyskinesia (LID); assay: Randomized, double-blind, placebo-controlled study of Amantadine ER capsules for levodopa-induced dyskinesia in Parkinson's Disease (Example 5)
Text: Study Objectives: This study was designed to evaluate the efficacy of three dose levels of Amantadine Extended Release (ER) oral capsules dosed once nightly at nighttime for the treatment of levodopa-induced dyskinesia (LID) in subjects with Parkinson's Disease (PD). […] Study design: This was a multi-center, randomized, double-blind, placebo-controlled, 4-arm parallel group study of Amantadine ER in subjects with PD who have LID.
Subjects who were randomized to Treatment C received, in double-blind fashion, 260 mg Amantadine ER once nightly during week 1, with an increase to 340 mg once nightly at the beginning of week 2. Subjects who were randomized to Treatment D, in double-blind fashion, 260 mg Amantadine ER once nightly during week 1, with an increase to 340 mg Amantadine ER once nightly during week 2, with a further increase to 420 mg once nightly at the beginning of week 3. Dosing for all groups continued at the nominal dose through week 8.
Following completion of the baseline visit and randomization, subjects returned to the clinic after 1, 2, 4, 6, and 8 weeks of dosing, with a follow-up visit 14 days following the last dose of study drug. Study visits and assessments were scheduled during the hours between 10 am through 4 pm. A set of two 24-hour diaries were be completed during 48 hours prior to randomization and 48 hours prior to selected study visits. The diary was used to score five different conditions in 30-minute intervals: Sleep, OFF, ON without dyskinesias, ON with nontroublesome dyskinesias, ON with troublesome dyskinesias.
Blood samples were collected at selected study visits for determination of amantadine plasma concentrations, and evaluation of steady-state population pharmacokinetics. Subject participation during the study was up to 12 weeks including a 2-week (maximum) screening period, 8-week (maximum) treatment period, and a 2-week follow-up period. Subjects unable to tolerate their assigned study drug assignment permanently discontinued study drug and continued to be followed for safety through 2 weeks following the last dose of study drug. […]

[3] = amantadine IR 200 mg/day, PD patients

discontinuation rates ([2]; 420 mg once nightly): higher discontinuation rates
SMILES: NC12CC3CC(CC(C3)C1)C2 [amantadine, Amantadine HCl]
reduction in LID [1, 3]: approximately 25%
tolerability [1, 3]: generally tolerated by the majority of PD patients
CNS side effects ([1]; amantadine IR 300 mg/day or higher): associated with central nervous system (CNS) side effects
reduction of LID ([1]; amantadine IR 300 mg/day, PD patients): ~40%
reduction of LID ([1]; amantadine IR 300 to 400 mg/day, one study): ~60%
effect on motor fluctuations (ON/OFF) ([1]; later stages of PD): no effect
frequency of side effects ([2]; 420 mg once nightly): comparable frequency of side effects
tolerability ([2]; 260-420 mg once nightly, Parkinson's disease patients): well tolerated

Source: patent US11903908B2, “Methods of administering amantadine” (Adamas Pharma, LLC, priority 2013, dated 2024)
